pIC50: −log10 of the molar value. Where “and” joins values, the source holds several entries; their conditions need not be identical. Identical values can stand only once.
System: 699152-130-R-J1-PDC complex spheroid viability
Test: Anticancer human tumor 699152-130-R-J1-PDC patient-derived pancreatic carcinoma cell line growth inhibition [POLQ]
Settings: for viability, T/C: stronger effect = lower value
Description: Multicellular complex tumor spheroid response to Polymerase (POL) inhibitors (novobiocin, ART-558, RP6685) in combination with a variety of drugs and investigational agents in selected tumor cell lines
The POL inhibitors (novobiocin, ART-558, and RP6685) were evaluated both individually and in combination with standard of care and investigational anticancer small molecules within a complex spheroid model of solid tumors. . Complex spheroids include a stromal component modeled by human endothelial cells (HUVEC) and fibroblasts modeled by human mesenchymal stem cells (MSCs). The concentration ranges selected for each drug and investigational agent were based upon clinically achievable concentrations if the clinical Cmax of the agent was known.
Compounds. The drugs and investigational agents: novobiocin (NSC847541), ART-558 (NSC835418), RP-6685 (NSC848927), peposertib (NSC802822), ceralasertib (NSC780249), elimusertib (NSC800525), camonsertib (NSC841442), AZD-1390 (NSC803789), olaparib (NSC753686), talazoparib (NSC767125), rucaparib (NSC756644), sotorasib (NSC818433), MRTX-1133 (NSC836407), SN-38 (NSC673596), topotecan (NSC609699), epotoside (NSC141540), doxorubicin (NSC123127), gemcitabine (NSC613327), 5-fluorouracil (NSC19893), paclitaxel (NSC125973), vemurafenib (NSC761431), MSA-2 (NSC828583), SN-011 (NSC837082), adavosertib (NSC754352), prexasertib (NSC758257), carboplatin (NSC241240) and oxaliplatin (NSC266046), were obtained from the National Cancer Institute (NCI) Developmental Therapeutics Program Chemical Repository (21). The FDA-approved anticancer drug set is available from the Developmental Therapeutics Program at https://dtp.cancer.gov/organization/dscb/obtaining/. […] The stock solutions were prepared in dimethyl sulfoxide (DMSO, Sigma-Aldrich, St. Louis, MO, cat. D2650), except for the platinum compounds which were prepared in saline (Quality Biological, Gaithersburg, MD, cat. 114-055-101), at 800-fold the tested concentration and stored at -70 degrees C prior to their use. All drugs and investigational agents were tested over a range starting from a high concentration at or near the clinical Cmax and decreasing in half-log increments. If the clinical Cmax for an agent had not been determined, the highest concentration tested was 10 microM, except for SN-38, which was tested at a high concentration of 1 microM.
Cell Culture. All cells were maintained in an incubator at 37 degrees C and 5% CO2 with 95% humidity. The PDC lines were cultured according to standard operating procedures established by the NCI PDMR (https://pdmr.cancer.gov). Table 3 of the manuscript, lists the cell lines along with the number of the three cell types plated to form the mct-spheroids and media for tumor cell growth. After thawing, all PDC lines, except 997537-175-T-J1-PDC and 415267-285-R-J2-PDC, were cultured in Matrigel-coated flasks prepared with a working solution of 1X Ham's F-12 nutrient mix, without supplementation (Thermo Fisher Scientific, cat. 11765054), 100 U/mL penicillin-streptomycin (Thermo Fisher Scientific, cat. 15140122), and 2.5% Matrigel (Corning Inc., Corning, NY, cat. 354248) for the first three passages. The two PDC lines 997537-175-T-J1-PDC and 415267-285-R-J2-PDC were cultured on uncoated flasks. The 857933-349-R-J2-PDC line was cultured in 6C/Colon 1B media containing advanced DMEM/F-12 (Thermo Fisher Scientific, cat. 12634028), 10 mM HEPES (Thermo Fisher Scientific, cat. 15630080), 1X GlutaMAX supplement (Thermo Fisher Scientific, cat. 35050061), 0.1 mg/mL primocin (InvivoGen, San Diego, CA, cat. ant-pm-2), 10% defined fetal bovine serum, heat inactivated (HyClone Laboratories Inc., Logan, UT, cat. SH30070.03HI), 50% L-WRN conditioned media (ATCC, cat. CRL-3276), 1.25 mM N-Acetyl-L-cysteine (Sigma-Aldrich, cat. A9165), 10 mM nicotinamide (Sigma-Aldrich, cat. N0636), 1X B-27 supplement (Thermo Fisher Scientific, cat. 17504044), 1X N-2 supplement (Thermo Fisher Scientific, cat. […]
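Also: spheroids exposed to agents for 7 days before viability reading.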
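For viability, T/C in this document: percent of DMSO vehicle control viability so 100% = vehicle and 0% = no viable signal.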

Structure (SMILES): CCc1cc2c(N3CCc4c(cc(Cn5ccnc5)cc4-c4cn(C)nc4C(F)(F)F)C3=O)ccnc2c(OC)n1
- viability, T/C (compound 0.0316 µM): 88.3% and 83.8% and 90.8%
- viability, T/C (compound 0.1 µM): 81.6% and 90.7% and 76.9%
- viability, T/C (compound 0.316 µM): 86.3% and 93.2% and 101%
- viability, T/C (compound 1 µM): 102% and 81.5% and 103%
- viability, T/C (compound 3.16 µM): 99.5% and 98.2% and 112%
- viability, T/C (compound 10 µM): 89% and 94.7% and 88.3%
- pIC50 (curve of compound): < 5.00

Structure (SMILES): CCc1cc2c(N3CCc4c(cc(Cn5ccnc5)cc4-c4cn(C)nc4C(F)(F)F)C3=O)cc(C)nc2c(OC)n1 + COC1C(OC(N)=O)C(O)C(Oc2ccc3c(O)c(NC(=O)c4ccc(O)c(CC=C(C)C)c4)c(=O)oc3c2C)OC1(C)C
- pIC50 (curve of first compound, second compound 0.0316 µM): < 5.00
- pIC50 (curve of first compound, second compound 0.1 µM): < 5.00
- pIC50 (curve of first compound, second compound 0.316 µM): < 5.00
- pIC50 (curve of first compound, second compound 1 µM): < 5.00
- pIC50 (curve of first compound, second compound 3.16 µM): < 5.00
- pIC50 (curve of first compound, second compound 10 µM): < 5.00
- viability, T/C (second compound 0.0316 µM, first compound 0.0316 µM): 91%
- viability, T/C (second compound 0.0316 µM, first compound 0.1 µM): 91.9%
- viability, T/C (second compound 0.0316 µM, first compound 0.316 µM): 89.5%
- viability, T/C (second compound 0.0316 µM, first compound 1 µM): 93.2%
- viability, T/C (second compound 0.0316 µM, first compound 3.16 µM): 101%
- viability, T/C (second compound 0.0316 µM, first compound 10 µM): 100%
- viability, T/C (second compound 0.1 µM, first compound 0.0316 µM): 93.9%
- viability, T/C (second compound 0.1 µM, first compound 0.1 µM): 91.4%
- viability, T/C (second compound 0.1 µM, first compound 0.316 µM): 91.7%
- viability, T/C (second compound 0.1 µM, first compound 1 µM): 101%
- viability, T/C (second compound 0.1 µM, first compound 3.16 µM): 96.9%
- viability, T/C (second compound 0.1 µM, first compound 10 µM): 99.5%
- viability, T/C (second compound 0.316 µM, first compound 0.0316 µM): 94.5%
- viability, T/C (second compound 0.316 µM, first compound 0.1 µM): 91.4%
- viability, T/C (second compound 0.316 µM, first compound 0.316 µM): 89.8%
- viability, T/C (second compound 0.316 µM, first compound 1 µM): 96.1%
- viability, T/C (second compound 0.316 µM, first compound 3.16 µM): 99%
- viability, T/C (second compound 0.316 µM, first compound 10 µM): 106%
- viability, T/C (second compound 1 µM, first compound 0.0316 µM): 98.8%
- viability, T/C (second compound 1 µM, first compound 0.1 µM): 83.5%
- viability, T/C (second compound 1 µM, first compound 0.316 µM): 97.2%
- viability, T/C (second compound 1 µM, first compound 1 µM): 96%
- viability, T/C (second compound 1 µM, first compound 3.16 µM): 94.2%
- viability, T/C (second compound 1 µM, first compound 10 µM): 99.8%
- viability, T/C (second compound 3.16 µM, first compound 0.0316 µM): 92.4%
- viability, T/C (second compound 3.16 µM, first compound 0.1 µM): 86.8%
- viability, T/C (second compound 3.16 µM, first compound 0.316 µM): 84.2%
- viability, T/C (second compound 3.16 µM, first compound 1 µM): 98.5%
- viability, T/C (second compound 3.16 µM, first compound 3.16 µM): 95%
- viability, T/C (second compound 3.16 µM, first compound 10 µM): 102%
- viability, T/C (second compound 10 µM, first compound 0.0316 µM): 93.2%
- viability, T/C (second compound 10 µM, first compound 0.1 µM): 102%
- viability, T/C (second compound 10 µM, first compound 0.316 µM): 88.5%
- viability, T/C (second compound 10 µM, first compound 1 µM): 100%
- viability, T/C (second compound 10 µM, first compound 3.16 µM): 105%
- viability, T/C (second compound 10 µM, first compound 10 µM): 106%

Structure (SMILES): O=c1[nH]cc(F)c(=O)[nH]1
- viability, T/C (compound 0.0316 µM): 91.8% and 111% and 102%
- viability, T/C (compound 0.1 µM): 130% and 91.7% and 100%
- viability, T/C (compound 0.316 µM): 96.3% and 108% and 117%
- viability, T/C (compound 1 µM): 101% and 114% and 94%
- viability, T/C (compound 3.16 µM): 108% and 92.4% and 91%
- viability, T/C (compound 10 µM): 70.4% and 70.2% and 62.4%
- pIC50 (curve of compound): < 5.00

Structure (SMILES): COc1cccc(OCCCN)c1-c1cc(Nc2cnc(C#N)cn2)n[nH]1
- viability, T/C (compound 0.00316 µM): 94% and 98.1% and 84.3%
- viability, T/C (compound 0.01 µM): 84.5% and 83.7% and 91.9%
- viability, T/C (compound 0.0316 µM): 66% and 60% and 74.3%
- viability, T/C (compound 0.1 µM): 56.1% and 57.8% and 62.7%
- viability, T/C (compound 0.316 µM): 55.3% and 56.8% and 60.6%
- viability, T/C (compound 1 µM): 50.4% and 52.5% and 58.4%
- pIC50 (curve of compound): < 6.00

Structure (SMILES): C#Cc1c(F)ccc2cc(O)cc(-c3ncc4c(N5CC6CCC(C5)N6)nc(OCC56CCCN5CC(F)C6)nc4c3F)c12 (centres undefined)
- viability, T/C (compound 0.0316 µM): 24.6% and 29.7% and 27.3%
- viability, T/C (compound 0.1 µM): 19.7% and 18.3% and 19.8%
- viability, T/C (compound 0.316 µM): 18.1% and 15.8% and 16.3%
- viability, T/C (compound 1 µM): 15% and 13.9% and 15.6%
- viability, T/C (compound 3.16 µM): 14.4% and 11.4% and 13.7%
- viability, T/C (compound 10 µM): 12.7% and 13.8% and 11%
- pIC50 (curve of compound): > 7.50

Structure (SMILES): COc1cc2cc(C(=O)CCC(=O)O)sc2cc1OC
- viability, T/C (compound 0.0316 µM): 101% (2×) and 90.4%
- viability, T/C (compound 0.1 µM): 98.7% and 97.3% and 103%
- viability, T/C (compound 0.316 µM): 94.8% and 103% and 101%
- viability, T/C (compound 1 µM): 102% and 96.4% and 105%
- viability, T/C (compound 3.16 µM): 111% (2×) and 91.5%
- viability, T/C (compound 10 µM): 99.7% and 93.3% and 99.9%
- pIC50 (curve of compound): < 5.00

Structure (SMILES): CCCS(=O)(=O)Nc1ccc(F)c(C(=O)c2c[nH]c3ncc(-c4ccc(Cl)cc4)cc23)c1F
- viability, T/C (compound 0.0316 µM): 109% and 96.3% and 112%
- viability, T/C (compound 0.1 µM): 112% and 102% and 110%
- viability, T/C (compound 0.316 µM): 129% and 120% and 116%
- viability, T/C (compound 1 µM): 158% and 156% and 128%
- viability, T/C (compound 3.16 µM): 187% and 182% and 192%
- viability, T/C (compound 10 µM): 34.7% and 43.6% and 56.4%
- pIC50 (curve of compound): 5.07 and 5.04 and < 5.00
